Values joined by “and” are separate entries in the source; they are usually repeats but may differ in a detail not shown here. Identical values can stand only once.
Assays:
ITK = biological target: T1, ITK (Homo sapiens, UniProt Q08881); assay: PamChip tyrosine kinase microarray, ITK; assay type: biochemical; details: 4e 0.1 µM, HL60 lysate
T1 construct: endogenous in cells; host or cells: HL60 lysate
T1 sequence (Q08881 1-620): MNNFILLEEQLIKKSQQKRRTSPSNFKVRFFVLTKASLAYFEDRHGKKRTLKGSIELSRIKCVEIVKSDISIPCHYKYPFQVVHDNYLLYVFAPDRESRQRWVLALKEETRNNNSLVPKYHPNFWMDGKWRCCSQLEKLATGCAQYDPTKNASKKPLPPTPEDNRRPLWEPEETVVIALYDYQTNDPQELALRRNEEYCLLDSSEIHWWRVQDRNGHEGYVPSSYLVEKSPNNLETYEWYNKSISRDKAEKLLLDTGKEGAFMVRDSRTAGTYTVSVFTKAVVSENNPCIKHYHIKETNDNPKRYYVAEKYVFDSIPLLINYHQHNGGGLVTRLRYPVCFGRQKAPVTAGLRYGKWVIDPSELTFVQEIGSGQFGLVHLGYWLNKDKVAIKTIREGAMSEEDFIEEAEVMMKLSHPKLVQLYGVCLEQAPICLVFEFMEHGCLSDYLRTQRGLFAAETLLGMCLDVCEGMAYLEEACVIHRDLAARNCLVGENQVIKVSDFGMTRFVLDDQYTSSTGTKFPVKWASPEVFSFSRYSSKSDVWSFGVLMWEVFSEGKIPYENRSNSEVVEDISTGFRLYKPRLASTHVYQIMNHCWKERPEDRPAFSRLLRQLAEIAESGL
Method: (§1) The changes in kinase activities induced by treatment with 4e were monitored within the HL60 cell lines using PamGene’s (Hertogenbosch, Netherlands) PamChip® peptide microarray profiler, which quantifies the activities of 144 tyrosine kinases (YK) ([29], [30]) (Figure 7). Results are provided as a log fold change (LFC) heatmap and Mean Kinase Statistic. From the LFC it is apparent that compound 4e, at a concentration of 0.1 µM, induced sizable changes to the activity of several kinases within the cell signaling YK profile (Figure 7A).
(§2) An Upstream Kinase tool was used to generate a putative list of kinases responsible for phosphorylating the phospho-sites on the PamChip (Figure 7B) ([31]). It is an interpretation and is highly dependent on the contents of the underlying phosphorylation databases. A Kinase Score was used for ranking kinases based on their significance and specificity in terms of the set of peptides used for the corresponding kinase. Kinase Statistics indicates the overall change of the peptide set that represents the kinase. Kinase statistics value <0 indicates lower kinase activity in the compound spiked lysate and vice versa ([32], [33]). Table 5 lists the 20 most changed kinases within treated HL60 cell lysates by 0.1 μM 4e, ranked according to their Kinase Score.
(§3) The compound 4e was spiked into HL60 cell lysate at different concentrations (0.001, 0.01, 0.1, 1, 10 and 50 μM). In addition, DMSO was also spiked in HL60 lysate at low concentration (2% v/v) as control. Samples were profiled on PamGene’s Tyrosine Kinase (PTK) arrays in technical replicates, covering a total of 196 phosphorylation sites. Frozen HL60 cultured cell pellet was sent to PamGene. At PamGene, cells were lysed using a lysis buffer and proteases inhibitors cocktail. Protein concentration was measured using standard Bradford assay as per PamGene SOPs. These lysates were further used for generating the PTK activity profiles. For spiking, 4e was received as powder form and dissolved in DMSO at PamGene facility followed by storing at -20°C in small aliquots. PamGene used its in-house bioinformatics toolbox in combination with other methods to generate hypotheses of signaling pathways.

Fgr = biological target: T2, Fgr (Homo sapiens, UniProt P09769); assay: PamChip tyrosine kinase microarray, Fgr; assay type: biochemical; details: 4e 0.1 µM
T2 construct: endogenous in cells; host or cells: HL60 lysate
Method: as §1, §2, §3

Lck = assay: PamChip tyrosine kinase microarray, Lck; assay type: biochemical, human; details: 4e 0.1 µM, HL60 lysate
Method: as §1, §2
(§4) The two multiple-kinase tests (PamChip and Phosphokinase Profiler) provided strong evidence of very minor involvement of Src in the cellular activities of 4e. However, the question must be raised about the effect of the 4e on other SRC family kinase (SFK). To address this point, we must highlight that both R&D phosphokinase profiler and PamChip feature Yes, Fgr, Lyn, Lck and Src while Fyn, Hck, Blk and Frk activities are tested in the PamChip only. The signals of SFKs in the R&D Phosphokinase Profiler were too weak to detect in both untreated (control) and 4e-treated HL60 cells. In PamChip assay, most of SFK’s were not ranked in the top 20 affected kinases (Table 5). In addition, their Specificity Score were very low (Table 6) indicating their marginal importance to the cell killing activities of 4e. Fgr kinase which ranked 7th in the list (Table 5) was the only SFK member that seems to be affected by the compound, albeit with low Specificity Score (1.03).
(§5) The compound 4e was spiked into HL60 cell lysate at different concentrations (0.001, 0.01, 0.1, 1, 10 and 50 μM). In addition, DMSO was also spiked in HL60 lysate at low concentration (2% v/v) as control. Samples were profiled on PamGene’s Tyrosine Kinase (PTK) arrays in technical replicates, covering a total of 196 phosphorylation sites. Frozen HL60 cultured cell pellet was sent to PamGene. […] Protein concentration was measured using standard Bradford assay as per PamGene SOPs. […]

Yes = assay: PamChip tyrosine kinase microarray, Yes; assay type: biochemical, human; details: 4e 0.1 µM, HL60 lysate
Method: as §1, §2, §4, §5

T2 sequence (P09769 whole entry): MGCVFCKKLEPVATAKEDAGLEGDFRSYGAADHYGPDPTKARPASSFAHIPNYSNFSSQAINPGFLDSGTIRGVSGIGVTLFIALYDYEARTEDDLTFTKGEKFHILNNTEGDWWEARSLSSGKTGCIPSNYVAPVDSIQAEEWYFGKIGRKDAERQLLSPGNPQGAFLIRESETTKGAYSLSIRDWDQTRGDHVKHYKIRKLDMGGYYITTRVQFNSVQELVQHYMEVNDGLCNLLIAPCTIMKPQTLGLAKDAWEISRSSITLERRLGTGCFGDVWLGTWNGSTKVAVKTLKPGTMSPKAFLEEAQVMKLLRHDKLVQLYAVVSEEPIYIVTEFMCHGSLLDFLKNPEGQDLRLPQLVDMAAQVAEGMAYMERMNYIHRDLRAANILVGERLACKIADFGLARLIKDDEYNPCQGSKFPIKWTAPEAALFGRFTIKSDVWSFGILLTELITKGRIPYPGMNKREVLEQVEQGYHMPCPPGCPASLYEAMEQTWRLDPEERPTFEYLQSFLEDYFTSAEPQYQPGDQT

Structure (SMILES): O=C(Cc1ccc(NC(=O)c2cccc(Cl)c2)cc1)NCc1ccccc1 [Compound 4e, N-(4-(2-(benzylamino)-2-oxoethyl)phenyl)-3-chlorobenzamide]
- Mean Final Score (ITK): 1.9173
- Mean Kinase Statistic (ITK): -0.5666
- Mean Significance Score (ITK): 1.0723
- Mean Specificity Score (ITK): 0.8451
- PamGene Ranking (Fgr; HL60): 7
- Mean Final Score (Fgr; HL60 lysate): 2.2023
- Mean Kinase Statistic (Fgr; HL60 lysate): -0.7971
- Mean Significance Score (Fgr; HL60 lysate): 1.1688
- Mean Specificity Score (Fgr; HL60 lysate): 1.03 and 1.0335
- Mean Final Score (Lck): 1.2290
- Mean Kinase Statistic (Lck): -0.5054
- Mean Significance Score (Lck): 0.8208
- Mean Specificity Score (Lck): 0.4082
- Mean Final Score (Yes): 1.1516
- Mean Kinase Statistic (Yes): -0.4139
- Mean Significance Score (Yes): 1.0126
- Mean Specificity Score (Yes): 0.1390
